Reference: patent publication US7799821B2, “Therapeutic compounds” (Allergan, Inc., priority 2004, dated 2010)
pEC50: −log10 of the molar value.

Key:
Format in all cases: cell-based
hFP = target: T1, hFP (Homo sapiens, UniProt P43088); assay: FLIPR calcium signal, hFP; details: Table 3, third part
T1 construct: expressed in transfected cells; host or cells: HEK-293(EBNA)
Protocol: (§1) HEK-293(EBNA) cells, stably expressing one type or subtype of recombinant human prostaglandin receptors (prostaglandin receptors expressed: hDP/Gqs5; hEP1; hEP2/Gqs5; hEP3A/Gqi5; hEP4/Gqs5; hFP; hIP; hTP), were cultured in 100 mm culture dishes in high-glucose DMEM medium containing 10% fetal bovine serum, 2 mM 1-glutamine, 250 μg/ml geneticin (G418) and 200 μg/ml hygromycin B as selection markers, and 100 units/ml penicillin G, 100 μg/ml streptomycin and 0.25 μg/ml amphotericin B. • (b) Calcium Signal Studies on the FLIPR™
(§2) Cells were seeded at a density of 5×10^4 cells per well in Biocoat® Poly-D-lysine-coated black-wall, clear-bottom 96-well plates (Becton-Dickinson) and allowed to attach overnight in an incubator at 37° C. Cells were then washed two times with HBSS-HEPES buffer (Hanks Balanced Salt Solution without bicarbonate and phenol red, 20 mM HEPES, pH 7.4) using a Denley Cellwash plate washer (Labsystems). After 45 minutes of dye-loading in the dark, using the calcium-sensitive dye Fluo-4 AM at a final concentration of 2 μM, plates were washed four times with HBSS-HEPES buffer to remove excess dye leaving 100 μl in each well. Plates were re-equilibrated to 37° C. for a few minutes.
(§3) Cells were excited with an Argon laser at 488 nm, and emission was measured through a 510-570 nm bandwidth emission filter (FLIPR™, Molecular Devices, Sunnyvale, Calif.). Drug solution was added in a 50 μl volume to each well to give the desired final concentration. The peak increase in fluorescence intensity was recorded for each well. On each plate, four wells each served as negative (HBSS-HEPES buffer) and positive controls (standard agonists: BW245C (hDP); PGE2 (hEP1; hEP2/Gqs5; hEP3A/Gqi5; hEP4/Gqs5); PGF2α (hFP); carbacyclin (hIP); U-46619 (hTP), depending on receptor). The peak fluorescence change in each drug-containing well was then expressed relative to the controls.
Compounds were tested in a high-throughput (HTS) or concentration-response (CoRe) format. […]

hEP1 = target: T2, hEP1 (Homo sapiens, UniProt P34995); assay: FLIPR calcium signal, hEP1; details: for pEC50: read-out: Other Receptors EC50 hEP1
T2 construct: expressed in transfected cells; host or cells: HEK-293(EBNA)
T2 sequence (P34995 1-402): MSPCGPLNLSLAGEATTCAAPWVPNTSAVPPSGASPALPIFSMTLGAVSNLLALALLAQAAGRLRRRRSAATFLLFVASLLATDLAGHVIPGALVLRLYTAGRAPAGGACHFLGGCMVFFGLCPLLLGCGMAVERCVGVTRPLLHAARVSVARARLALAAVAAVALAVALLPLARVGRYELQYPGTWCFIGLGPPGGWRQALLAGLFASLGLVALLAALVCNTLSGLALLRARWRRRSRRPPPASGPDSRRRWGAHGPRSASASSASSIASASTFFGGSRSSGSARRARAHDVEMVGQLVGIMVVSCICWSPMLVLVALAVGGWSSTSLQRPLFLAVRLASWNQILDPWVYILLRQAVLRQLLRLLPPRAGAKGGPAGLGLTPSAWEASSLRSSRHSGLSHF
Protocol: as §1, §2, §3
(§4) Compounds were tested in a high-throughput (HTS) or concentration-response (CoRe) format. In the HTS format, forty-four compounds per plate were examined in duplicates at a concentration of 10^−5 M. To generate concentration-response curves, four compounds per plate were tested in duplicates in a concentration range between 10^−5 and 10^−11 M. The duplicate values were averaged. In either, HTS or CoRe format each compound was tested on at least 3 separate plates using cells from different passages to give an n≧3.

hTP = target: T3, hTP (Homo sapiens, UniProt P21731); assay: FLIPR calcium signal, hTP
T3 construct: expressed in transfected cells; host or cells: HEK-293(EBNA)
T3 sequence (P21731 1-343): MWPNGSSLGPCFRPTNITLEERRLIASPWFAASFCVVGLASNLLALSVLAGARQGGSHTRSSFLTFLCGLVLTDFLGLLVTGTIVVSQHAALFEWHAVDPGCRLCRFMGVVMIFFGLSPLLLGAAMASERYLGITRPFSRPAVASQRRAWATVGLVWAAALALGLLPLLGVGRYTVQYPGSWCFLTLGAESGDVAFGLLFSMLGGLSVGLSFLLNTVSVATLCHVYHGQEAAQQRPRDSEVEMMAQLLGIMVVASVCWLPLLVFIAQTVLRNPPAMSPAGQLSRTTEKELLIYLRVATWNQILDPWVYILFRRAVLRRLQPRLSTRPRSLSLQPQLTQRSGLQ
Outline: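 HEK-293(EBNA) cells stably expressing each human prostanoid receptor (EP2 and EP3A coupled via Gqs5/Gqi5 chimeras) were loaded with Fluo-4 AM, and peak calcium fluorescence was measured on FLIPR at 37° C. Compounds were tested at 10^−5 M or from 10^−11 to 10^−5 M in duplicate, n≥3, with response expressed relative to buffer and standard agonist controls.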

hIP = target: T4, hIP (Homo sapiens, UniProt P43119); assay: FLIPR calcium signal, hIP; details: for pEC50: read-out: Other Receptors EC50 hIP
T4 construct: expressed in transfected cells; host or cells: HEK-293(EBNA)
T4 sequence (P43119 whole entry): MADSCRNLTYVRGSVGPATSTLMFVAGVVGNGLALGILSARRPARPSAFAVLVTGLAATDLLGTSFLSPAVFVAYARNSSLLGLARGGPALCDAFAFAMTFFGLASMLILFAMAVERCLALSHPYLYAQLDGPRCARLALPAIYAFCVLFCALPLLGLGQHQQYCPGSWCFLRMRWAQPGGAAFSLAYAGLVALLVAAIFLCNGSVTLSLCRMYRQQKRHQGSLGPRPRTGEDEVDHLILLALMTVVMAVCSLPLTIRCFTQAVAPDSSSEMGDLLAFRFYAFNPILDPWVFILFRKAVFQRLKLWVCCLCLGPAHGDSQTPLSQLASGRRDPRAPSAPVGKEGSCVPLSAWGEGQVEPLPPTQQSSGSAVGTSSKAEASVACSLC
Protocol: as §1, §2, §3, §4

T1 sequence (P43088 whole entry): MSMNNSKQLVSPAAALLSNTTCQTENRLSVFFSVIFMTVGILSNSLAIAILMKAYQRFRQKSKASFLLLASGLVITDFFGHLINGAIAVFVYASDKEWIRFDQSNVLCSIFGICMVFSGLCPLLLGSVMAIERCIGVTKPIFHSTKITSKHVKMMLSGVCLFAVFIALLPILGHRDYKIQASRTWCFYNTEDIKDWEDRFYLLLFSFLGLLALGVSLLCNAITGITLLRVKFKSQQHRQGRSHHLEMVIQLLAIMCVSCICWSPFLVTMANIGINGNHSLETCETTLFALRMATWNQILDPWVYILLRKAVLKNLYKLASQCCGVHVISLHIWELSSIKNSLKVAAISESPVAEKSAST

`CCCCCC(C)c1ccc([C@@H]2[C@@H](C/C=C\CCCC(=O)O)[C@H](C#N)C[C@H]2C)cc1` (some centres unmarked) was tested, and the “Ca2+ Signal-EC50 (nM) FP” value (hFP) was “not active”, the “Ca2+ Signal-EC50 (nM) EP1” value (hEP1; Table 3, third part) was “not active” and the “Ca2+ Signal-EC50 (nM) TP” value (hTP; Table 3, third part) was “not active”. The “Ca2+ Signal-EC50 (nM) IP” value (hIP; Table 3, third part) was “not active”.

`CC(C)(C)c1ccc(N2C(=O)CC[C@@H]2COCc2ccc(C(=O)O)s2)cc1` was tested, and the pEC50 (hEP1) was less than 5.00 and the pEC50 (hTP; read-out: Other Receptors EC50 hTP) was less than 5.00.

`CC(C)(C)c1ccc(N2C(=O)CC[C@@H]2CCCCCCC(=O)O)cc1` showed a pEC50 (hEP1) of less than 5.00.

Compound `CCCCCCC(O)c1ccc(N2C(=O)CC[C@@H]2CCCc2ccc(C(=O)O)s2)cc1` (single isomer, unassigned) [drawing 155] has a pEC50 (hEP1) of 5.16.

`CCCCCCC(O)c1ccc(N2C(=O)CC[C@@H]2CCCc2ccc(C(=O)O)s2)cc1` (single isomer, unassigned) [drawing 156] gave a pEC50 (hIP) of less than 5.00.

`CCCCCCC(O)c1ccc(N2C(=O)CC[C@@H]2CCCc2ccc(C(=O)O)s2)cc1` (single isomer, unassigned) [drawing 183] showed a pEC50 (hEP1) of 5.16.

`CCCCCCC(O)c1ccc(N2C(=O)CC[C@@H]2CCCc2ccc(C(=O)O)s2)cc1` (single isomer, unassigned) [drawing 184] gave a pEC50 (hIP) of less than 5.00.
